Laboratory results as given in US20230102836A1, “Amoebicidal Compositions for Contact Lens Solutions” (University of the West of Scotland, priority 2019, published 2023).
Where “and” joins values, the source holds several entries; their conditions need not be identical. Equal entries are not always repeated.

What was measured:
[1] = QACs; cited from earlier work
A. castellanii cysts = test: Cytotoxicity assay on cysts (trypan blue); format: cell-based, Acanthamoeba castellanii ATCC 50370; conditions: Acanthamoeba castellanii, read-out: IC50 A. castellanii cysts
Procedure: (§1) Acanthamoeba castellanii ATCC 50370 trophozoites and cysts were cultured in Peptone Glucose (PG) medium and encystment medium (Chagla A H, Griffiths A J (1974) Microbiology: 85(1): 139-145) respectively at 25° C. Cysts were prepared by incubating trophozoites for 8 days in encystment medium and integrity validated with calcofluor (0.25 μg/ml) assay (Gatti S et al (2010) J. Med. Microbiol.; 59: 1324-1330) or sodium dodecyl sulfate (SDS, 0.5% w/v) disintegration assay (Dudley R et al (2005) Acta Trop.; 9: 100-8) and microscopic observation.
The compounds used in this study all contained alkyl-carbon chains: three APCs [dodecyl-PC (APC12), tetradecyl-PC. (APC14) and hexadecyl-PC (APC16)] (Anatrace) and four QACs [docdecyl-TMAB (QAC12), tetradecyl-TMAB (QAC14), hexadecyl-TMAB (QAC16) and octadecyl-TMAB (QAC18)](Sigma). All were prepared to a stock concentration of 1 mg/ml and diluted as required by the experimental protocol in the cytotoxicity assays. A. castellanii trophozoites and cysts (at 10^5 cells/ml) with or without APCs or QACs (concentrations ranging from […] doubly diluted to 0.04 μg/ml to a final volume of 100 μl) in a 96-well plate were incubated at 25° C. for a duration determined by the experimental protocol.
For the combined assay, similar concentrations of QAC18 and APC16 were prepared and 18.75 μg/ml and 37.5 μg/ml of QAC12 added (to a final volume of 100 μl) were added to 10^5 cells/mi in a 96-well plate and later incubated at 25° C. for a duration determined by the experimental protocol. Resazurin (7-Hydroxy-31-phenoxazin-3-one 10-oxide; 5 mg/ml; McBride J et al (2005) J. Clin. Microbiol.; 43: 629-634) and trypan blue (0.4 μg/ml; Mafra C S P et al (2013) Investig. Ophthalmol. Vis. Si.; 54: 6363-6372) were then added to trophozoites and cysts respectively after being exposed to the compounds and the cell viability estimated microscopically and from changes in absorbance (at 595 nm and 570 nm) respectively.
(§2) Efficacy was expressed as a percentage of untreated controls for each drug concentration used and the data used to calculate the IC50. Cell density was estimated using the modified Neubaur hemocytometer and expressed as cells/ml.

gDNA from A. castellanii = test: QAC-DNA interaction assay; format: binding, Acanthamoeba castellanii; conditions: DNA:QAC ratios 1:0, 1:1, 1:10, 1:20; 15 min
Procedure: FIGS. 3A and 3B show the QAC-DNA interaction. The absorbance of genomic DNA (0.6 ng/ml) extracted from A. castellani trophozoites measured at 260 nm with the Nanodrop after incubating for 15 minutes with 0 ng/ml, 0.6 ng/ml, 6 ng/ml or 12 ng/ml of QAC12 (FIG. 3A) or QAC16 (FIG. 3B) to give ratios of 1:0, 1:1, 1:10 and 1:20. DNA absorbance increased and decreased with increased […] and [QAC12] respectively. Data is mean absorbance at 260 nm±SD; n=4 independent experiments performed in triplicates.
Genomic deoxynucleic acids (gDNA) from 10^8 A. castellanii trophozoites (treated with and without QAC) were extracted from cells harvested by centrifugation (850×g, 10 min), lysed with UNSET buffer (8M urea, […] NaCl, 2% SDS, […] ethylenediaminetetraacetic acid (EDTA), […] Tris-HCl, pH 7.5) and the DNA extracted with phenol-chloroform (1:1 v/v). The biphasic suspension with DNA enriched on the […] was centrifuged (12,000×g for 15 min, 4° C.) for clear separation and transferred to a new microcentrifuge tube. The DNA was precipitated with cold ethanol (100%, v/v) and 0.3M sodium acetate, washed twice with 70% (v/v) ethanol (12,000×g for 10 min, 4° C.), air dried and resuspended in distilled water. […]

[2] = system: A. castellanii trophozoites; test: Trophozoite-cyst conversion in encystment medium; format: cell-based, Acanthamoeba castellanii ATCC 50370; conditions: encystment medium supplemented with 37.5 μg/ml of QAC12
Procedure: Acanthamoeba trophozoites (10^5 cells/ml) incubated for up to 192 h in encystment medium inoculated with (dark grey) and without (light grey) QAC12 at 25° C. The number of trophozoites remaining estimated microscopically and expressed as a percent of total trophozoites at the start of the assay. Data is mean […]±SD; n=4 independent experiments performed in triplicates.
as §1

[3] = system: Acanthamoeba trophozoites; test: Checkerboard dilution QAC-APC interaction (Bliss model); format: cell-based, Acanthamoeba castellanii; conditions: APC12, APC14, APC16; 96 h at 25° C.
Procedure: Acanthamoeba trophozoites (10^5 cells/ml. n=5/treatment) treated with 100 μg/ml doubly diluted to 0.06 μg/ml of QAC12 (FIG. 7A), […], QAC16 (FIG. 7C) and QAC18 (FIG. 7D) with APC 12 (i), APCI 4 (ii) and APC16 (iii) for 96 h at 25° C. Cell viability estimated by the alamarBlue assay the dose-response curves used to produce a surface analysis (right panel) and the interaction profile determined using the Bliss model. The degree of interaction characterised by the QCScore heuristic score are produced as heat map (left panel). The colour of each cell in the heatmap and the surface analysis represents the assay response at that dose combination; red to orange, antagonistic: yellow to green, additive and blue, synergistic.
The change in potency between QAC and APC prompted us to used the checkerboard dilution method to identify synergistic interactions (FIG. 7A-D). Three interaction profiles, antagonistic (orange to red), additive (yellow to green) and synergistic (blue) were observed, with optimal synergistic interactions deemed to be significant occurring between 20-38%; (FIG. 7).

[4] = system: A. castellanii trophozoites; test: Cytotoxicity assay on trophozoites (resazurin / alamarBlue); format: cell-based, Acanthamoeba castellanii ATCC 50370
Procedure: as §1
The compounds used in this study all contained alkyl-carbon chains: three APCs [dodecyl-PC (APC12), tetradecyl-PC. (APC14) and hexadecyl-PC (APC16)] (Anatrace) and four QACs [docdecyl-TMAB (QAC12), tetradecyl-TMAB (QAC14), hexadecyl-TMAB (QAC16) and octadecyl-TMAB (QAC18)](Sigma). All were prepared to a stock concentration of 1 mg/ml and diluted as required by the experimental protocol in the cytotoxicity assays. […]
[…] Resazurin (7-Hydroxy-31-phenoxazin-3-one 10-oxide; 5 mg/ml; McBride J et al (2005) J. Clin. Microbiol.; 43: 629-634) and trypan blue (0.4 μg/ml; Mafra C S P et al (2013) Investig. Ophthalmol. Vis. Si.; 54: 6363-6372) were then added to trophozoites and cysts respectively after being exposed to the compounds and the cell viability estimated microscopically and from changes in absorbance (at 595 nm and 570 nm) respectively.
as §2

CCCCCCCCCCCC[N+](C)(C)C.[Br-] [QAC12, Dodecyltrimethyl ammonium bromide]
CMC [1]: ^+3.5 ± 0.3 μM
IC50 (A. castellanii cysts): > 37.5 µg/mL and > 122 µM
Change of gDNA absorbance at 260 nm with increasing QAC (gDNA from A. castellanii): dose-dependent decreased absorbance
Delay of encystation [2]: 96 h
Interaction profile of QAC combined with APCs [3]: Significant synergistic ‘well defined’ interactions were more predominant
Increase in absorbance at 570 nm (cell density) relative to control cells ([4]; 96 h at 25° C., peak at 37.7 μg/ml, alamarBlue): 4 fold
IC50 ([4]; Acanthamoeba castellanii, Table 2, read-out: IC50 A. castellanii trophozoites): > 37.5 µg/mL and > 122 µM
Effect on trophozoite biomass ([4]; FIG. 4): dose-dependent increased biomass
Activity against A. castellanii trophozoites ([4]; at up to 37.5 μg/ml): inactive
